Experimental data as given in the supplement of paper PMC10307832.

Tests used:
Assay in all cases: relative viability (nuclei count vs DMSO), 5 days (fraction); higher = more cells survive
Veliparib + Linsitinib = compound: C[C@]1(c2nc3c(C(N)=O)cccc3[nH]2)CCCN1 [Veliparib] + C[C@]1(O)C[C@@H](c2nc(-c3ccc4ccc(-c5ccccc5)nc4c3)c3c(N)nccn32)C1 [Linsitinib] (partner 1 µM)
How it was run: (§1)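 Relative viability was taken as the ratio of nuclei in treated wells to nuclei in vehicle wells. Lung cancer cell lines in 1536-well plates received compounds by pin tool one day after seeding, either one drug alone or a fixed anchor-drug dose plus five library-drug doses (not always all listed) in √10 steps. Nuclei were counted on 4× images after 5 days of treatment, and values are medians of duplicate plates.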

Veliparib + Bortezomib = compound: C[C@]1(c2nc3c(C(N)=O)cccc3[nH]2)CCCN1 [Veliparib] + CC(C)C[C@H](NC(=O)[C@H](Cc1ccccc1)NC(=O)c1cnccn1)B(O)O [Bortezomib] (partner 0.002 µM)
How it was run: as §1

Veliparib + Foretinib = compound: C[C@]1(c2nc3c(C(N)=O)cccc3[nH]2)CCCN1 [Veliparib] + COc1cc2c(Oc3ccc(NC(=O)C4(C(=O)Nc5ccc(F)cc5)CC4)cc3F)ccnc2cc1OCCCN1CCOCC1 [Foretinib] (partner 0.25 µM)
How it was run: as §1

[1] = compound: COC1=CC=C(C=C1)CN2C=CC3=C2C=C(C=C3)C(=O)NO + Cc1cc(Nc2cc(N3CCN(C)CC3)nc(Sc3ccc(NC(=O)C4CC4)cc3)n2)n[nH]1 [Tozasertib] (partner 0.1 µM)
How it was run: as §1

Cell Line	relative viability (Veliparib + Linsitinib; first compound 0.02 µM)	relative viability (Veliparib + Linsitinib; first compound 0.06325 µM)	relative viability (Veliparib + Linsitinib; first compound 0.2 µM)	relative viability (Veliparib + Linsitinib; first compound 0.6325 µM)	relative viability (Veliparib + Linsitinib; first compound 2 µM)	relative viability (Veliparib + Bortezomib; first compound 0.02 µM)	relative viability (Veliparib + Bortezomib; first compound 0.06325 µM)	relative viability (Veliparib + Bortezomib; first compound 0.2 µM)	relative viability (Veliparib + Bortezomib; first compound 0.6325 µM)	relative viability (Veliparib + Bortezomib; first compound 2 µM)	relative viability (Veliparib + Foretinib; first compound 0.02 µM)	relative viability (Veliparib + Foretinib; first compound 0.06325 µM)	relative viability (Veliparib + Foretinib; first compound 0.2 µM)	relative viability (Veliparib + Foretinib; first compound 0.6325 µM)	relative viability (Veliparib + Foretinib; first compound 2 µM)	relative viability ([1]; first compound 0.08 µM)	relative viability ([1]; first compound 0.253 µM)	relative viability ([1]; first compound 0.8 µM)	relative viability ([1]; first compound 2.53 µM)	relative viability ([1]; first compound 8 µM)
LCLC-103H	1.1	0.982	1.11	1.01	1.08	0.822	0.963	1.01	1.05	0.933	0.712	0.711	0.95	0.701	0.767	0.445	0.523	0.489	0.534	0.433
LOU-NH91	0.9	0.932	0.971	0.901	1.02	0.486	0.387	0.511	0.464	0.476	0.9	0.889	0.977	0.924	0.97	0.407	0.693	0.66	0.64	0.587
LU99A	0.579	0.61	0.565	0.475	0.525	1.16	1.1	0.833	1.06	1.29	0.75	0.744	0.752	0.663	0.721	–	0.254	0.298	0.277	0.298
LXF-289	0.93	0.955	0.954	0.922	0.925	0.997	0.975	1	0.959	1.02	0.986	0.956	0.957	0.984	0.962	–	0.231	0.164	0.195	0.182
NCI-H23	0.775	0.504	0.574	0.505	0.65	0.887	1.04	1.02	0.883	1.08	1.08	0.882	1.01	0.935	1.08	0.292	0.352	0.358	0.301	0.281
NCI-H322M	1.03	0.864	0.885	0.826	0.972	1.25	1.15	1.26	1.07	1.17	–	0.948	0.871	1	0.937	–	0.497	0.525	0.485	0.439
NCI-H441	0.506	0.589	0.563	0.584	0.541	0.472	0.293	0.533	0.365	0.401	0.905	0.738	0.992	0.877	0.948	0.679	0.604	0.561	0.768	0.493
NCI-H460	–	0.806	0.664	0.527	0.72	–	0.952	1.01	1.07	1.09	0.994	0.909	0.952	0.948	0.983	0.309	0.381	0.422	0.411	0.195
NCI-H520	0.984	1.03	0.966	0.922	1.04	0.532	0.67	0.791	0.608	0.643	0.824	0.763	0.805	0.601	0.647	–	0.453	0.428	0.449	0.375
NCI-H596	1	1.02	1.07	0.893	0.99	1.14	1	1.06	1.11	0.902	0.967	0.823	1.02	0.773	0.75	1.05	0.823	0.872	0.938	0.743
NCI-H647	1.09	1.01	0.989	1.02	1.09	1.23	1	0.847	0.985	0.965	1.35	1.15	1.29	1.15	0.977	0.224	0.237	0.314	0.262	0.267
NCI-H650	0.766	0.716	0.864	0.875	0.448	0.635	0.675	0.64	0.744	0.565	1.06	0.95	1.05	1	1.09	0.595	0.69	0.786	0.673	0.672
NCI-H661	0.4	0.59	0.604	0.496	0.666	0.635	0.877	0.767	0.731	0.777	0.999	1.02	0.866	0.892	0.998	–	0.356	0.369	0.328	0.329
NCI-H727	0.284	0.219	0.253	0.293	0.24	0.381	0.754	0.755	0.82	0.815	1.22	0.66	0.816	0.694	1.04	0.592	0.529	0.772	0.602	0.625
